From patent US6365604B1, “Antipsychotic substituted piperidine derivatives” (Akzo Nobel NV, priority 1997, dated 2002)
Read-outs that look alike come from different tables or passages of the source.

What was measured:
[1] = system: climbing behaviour in mice, induced by apomorphine; test: Apomorphine climbing test (ACT) in mice; type: in vivo; settings: test compound s.c., 0.75 mg/kg apomorphine HCl s.c. after 30 min, climbing scored at 10 and 20 min
Text: The ability of dopamine receptor antagonists to inhibit the behavioural effects in rodents caused by dopamine agonists such as apomorphine is a well established criterion for predicting the antipsychotic efficacy of these drugs in man (see e.g. W. C. Bowman and M. J. Rand, Textbook of Pharmacology, 2nd ed., 1980, 15, 6). A particularly relevant test in this respect is the apomorphine climbing test (ACT) which measures the ability of a dopamine antagonist to inhibit the climbing behaviour in mice, induced by the subcutaneous or oral administration of apomorphine. Activity in this test, following systemic and oral administration, has been widely used as a predictor of antipsychotic activity i.e. anti-schizophrenic activity (see e.g. J. T Strupczewski et.al., J. Med. Chem., 1995, 38, 1119). Mice treated with apomorphine HCl tend to adopt a vertical position along the wall of a wire mesh cylinder, standing or climbing. This climbing behaviour is considered to be elicited by apomorphine-mediated stimulation of dopamine receptors. […] Test compounds which modulate this climbing behaviour may have antipsychotic activity. The various treatments are randomly distributed over the mice. Each experiment consists of 1+n treatment groups: 1 being a control group of 12 mice receiving apomorphine and vehicle subcutaneously or being a control group of 12 mice receiving apomorphine subcutaneously and vehicle orally; n being (usually 4) compound groups of 12 mice receiving apomorphine and test compound subcutaneously or being compound groups of 12 mice receiving apomorphine subcutaneously and test compound orally.
Experiments are performed in 3 runs of 20 mice each. […]
At 10 min after the treatment with apomorphine the climbing behaviour of each mouse is observed and expressed as a score, according to the following grade: […]
At 20 min after the treatment with apomorphine the climbing behaviour is observed and scored again. For each treatment group the mean score per mouse is determined. […] The final result per group is expressed as the percentage over the control group. […]

catalepsy in rats [2] = settings: rat, in vivo
Method: (§1) Male Wistar rats (100-125 g, Olac UK) were used for catalepsy experiments. Catalepsy was assessed as described previously (Broekkamp et al, Naunyn-Schmiedeberg's Arch. Pharmacol. 338, 191 1988). Briefly, rats were tested in 6 different observation trials in which the animals were placed in abnormal postures and scored positively with one point for maintaining the imposed posture for 10 s. The imposed postures were: vertical clinging to a grid, upright standing with a high support for the front paws, extension of hindlegs, placement on back, placement of spatula in the mouth and rotation in a wire mesh cylinder.
(§2) Theoretically a maximum score of 6 can be reached. Catalepsy was assessed at 60 and 120 minutes after drug administration. The data were evaluated by 2 way ANOVAR followed by a Newman Kools post hoc test and ED50 values calculated (Table II).

catalepsy in rats [3] = test: Catalepsy in rats; settings: male Wistar rats; catalepsy assessed at 60 and 120 minutes after drug administration
Method: as §1, §2

melting point [°C]	SMILES	ACT(ED50) [1] [mg/kg]	further results
167.4	CCc1csc(C(=C2CCN(CCCC(=O)N3CCCC3)CC2)c2ccc(F)cc2)c1.Cl.Cl	–	–
–	Cc1csc(C(=C2CCN(CCCC(=O)N3CCCC3)CC2)c2ccc(F)cc2)c1.Cl.Cl [Compound 2m, 1-[4-[4-[(4-fluorophenyl)(4-methylthien-2-yl)methylene]piperidin-1-yl]-1-oxobutyl]-pyrrolidine.dihydrochloride]	0.14	CATR (ED50) (catalepsy in rats [2]): >7 mg/kg
–	Cc1csc(C(=C2CCN(CCCC(=O)N3CCCCC3)CC2)c2ccc(F)cc2)c1.O=C(O)C(=O)O [Compound 2l, 1-[4-[4-[(4-fluorophenyl)(4-methylthien-2-yl)methylene]piperidin-1-yl]-1-oxobutyl]-piperidine (1:1) ethanedicarboxylate]	0.3	–
–	Cc1csc(C(=C2CCN(CCCC(=O)N3CCCCC3)CC2)c2cccc(F)c2)c1.Cl [Compound 2n, 1-[4-[4-[(3-fluorophenyl)(4-methylthien-2-yl)methylene]piperidin-1-yl]-1-oxobutyl]-piperidine.hydrochloride]	0.34	CATR (ED50) (catalepsy in rats [3]): >17 mg/kg
95 to 97	Cc1csc(C(=C2CCN(CCCNC(=O)c3ccccc3)CC2)c2ccc(F)cc2)c1.Cl	–	–
114 to 116	Cc1ccc(C(=O)N(C)CCN2CCC(=C(c3ccc(F)cc3)c3cc(C)cs3)CC2)cc1	–	–

SMILES	melting point [°C]	ACT(ED50) [1] [mg/kg]	further results
Cc1csc(C(=C2CCN(CCNC(=O)C3CC3)CC2)c2ccc(F)cc2)c1.O=C(O)C(=O)O	98 to 101	–	–
Cc1ccc(C(=O)NCCN2CCC(=C(c3ccc(F)cc3)c3cc(C)cs3)CC2)cc1.O=C(O)C(=O)O	189 to 191	–	–
